Legend:
Mtb = conditions: in vitro; cited from earlier work
aerobically growing Mtb = conditions: aerobic growth
[1] = test system: Mtb in hypoxia-induced growth arrest; assay: Bactericidal activity of HAB9 in hypoxic growth conditions (variation of the Wayne model)

Structure (SMILES) | activity against Mtb under nutrient starvation or progressive oxygen depletion (Mtb) | bactericidal activity against aerobically growing Mtb (aerobically growing Mtb) | bactericidal activity in hypoxia-induced growth arrest ([1]; hypoxic, non-replicating Mtb) | anti-mycobacterial activity in limiting oxygen compared to aerobically grown cells ([1]; limiting oxygen versus aerobic)
NNC(=O)c1ccncc1 [isoniazid] | little or no activity |  |  | 
COc1ccc(-c2cc(=O)c3c(O)cc(OC)cc3o2)cc1 [Compound 1, 5-hydroxy-7-methoxy-2-(4-methoxyphenyl)chromen-4-one] |  | substantially reduced viable cultures of Mtb | substantially reduced viable cultures of Mtb | enhanced

From patent publication US20240207219A1, “Artemisia anti-bacterial compositions and methods of use for inhibition of cells of Mycobacterium species” (priority 2022, published 2024)
